These results are taken from US20090143279A1 (priority 2007, published 2009).

Holding throughout (details): Conc 20 μM
For assay [1], the system named is reactive oxygen species. The class given is cell-based, mouse.
The test system of assay [2] is cellular dehydrogenase activity.
Assay [3] deals with C2C12 myotubes.
Assay [4] relates to cytochrome c. The class given is cell-based, mouse.
Assay [5] concerns OXPHOS gene expression. Format: cell-based, mouse.
Assay [6] relates to mtOXPHOS transcripts. Format: cell-based, mouse.
Assay [7] has as its system mitochondrial membrane potential. The class given is cell-based, mouse.
The subject of assay [8] is nuOXPHOS transcripts. Format: cell-based, mouse.
Setting [9] is: normalized composite Z-score vs mock-treated (DMSO) wells.
The mark [10] stands for this setting: composite Z-score vs mock-treated (DMSO) wells.

Read-outs that look alike come from different tables or passages of the source.

`Cc1cc(O)c(C)c(O)c1C(=O)O` [3-methylorsellinic acid]: in assay [1] (composite Z-score vs DMSO), the ROS stood at 0.860. In assay [2] (composite Z-score vs DMSO), this compound yielded an MTT of −1.253. Moreover, the Viability in assay [3] (composite Z-score vs DMSO) is listed as −0.494. Further, the cyt c in assay [4] (composite Z-score vs DMSO) stood at 0.321. The same compound gave a GE-HTS in assay [5] (composite Z-score vs DMSO) of −1.005. This compound also displayed a mitoOX in assay [6] (composite Z-score vs DMSO) of −0.108. In assay [7] (composite Z-score vs DMSO), the ΔΨm is reported as −0.030. In assay [8] (composite Z-score vs DMSO), this compound registered a nucOX of −1.318.
As to `Cn1c(=O)[nH]c(=O)c2[nH]cnc21` [3-methylxanthine], the ROS in assay [1] (composite Z-score vs DMSO) worked out at 0.472. In assay [2] (composite Z-score vs DMSO), this compound gave an MTT of −0.859. The compound also had a Viability in assay [3] (composite Z-score vs DMSO) of 0.036. In addition, the cyt c in assay [4] (composite Z-score vs DMSO) is recorded as 0.692. In addition, the GE-HTS in assay [5] (composite Z-score vs DMSO) is −1.241. The same compound gave a mitoOX in assay [6] (composite Z-score vs DMSO) of −0.856. The ΔΨm in assay [7] (composite Z-score vs DMSO) is given as −0.149. The compound further displayed a nucOX in assay [8] (composite Z-score vs DMSO) of −1.286.
On to `CC1CCC23CCC4(C)C5(C)CCC6C(C)(C)C(=O)CCC6(C)C5CCC4(OC2=O)C3C1C` (stereo not shown) [3-oxoursan (28-13)olide], for which the ROS in assay [1] (setting [9]) is reported as 1.010. In assay [2] (setting [9]), this compound had an MTT of −1.871. Also, the Viability in assay [3] (setting [9]) worked out at 0.638. This compound also yielded a cyt c in assay [4] (setting [9]) of 0.991. Also, in assay [5] (setting [9]), the GE-HTS is −1.322. The mitoOX in assay [6] (setting [9]) is recorded as −1.205. Besides, the ΔΨm in assay [7] (setting [9]) is given as −0.332. Besides, in assay [8] (setting [9]), the nucOX is −1.228.
In turn, `CC1C(=NO)CC2CC1C2(C)C` (stereo not shown) [3-pinanone oxime] had an ROS in assay [1] (setting [9]) of −0.152. Besides, the MTT in assay [2] (setting [9]) was −0.210. The Viability in assay [3] (setting [9]) is on record as −0.344. The cyt c in assay [4] (setting [9]) is 0.014. This compound also had a GE-HTS in assay [5] (setting [9]) of 0.141. This compound showed a mitoOX in assay [6] (setting [9]) of 0.386. The same compound came in with a ΔΨm in assay [7] (setting [9]) of −0.415. This compound yielded a nucOX in assay [8] (setting [9]) of 0.031.
For the compound `CC(=O)c1ccc(O)c(CC=C(C)C)c1` [3-prenyl-4-hydroxyacetophenone], the ROS in assay [1] (composite Z-score vs DMSO) amounted to 2.418. Besides, the MTT in assay [2] (composite Z-score vs DMSO) is listed as −1.066. In assay [3] (composite Z-score vs DMSO), this compound gave a Viability of −0.696. In assay [4] (composite Z-score vs DMSO), the cyt c stood at 0.220. In assay [5] (composite Z-score vs DMSO), this compound had a GE-HTS of 0.607. In addition, in assay [6] (composite Z-score vs DMSO), the mitoOX was found to be 0.804. In addition, the ΔΨm in assay [7] (composite Z-score vs DMSO) is on record as −0.010. Moreover, in assay [8] (composite Z-score vs DMSO), the nucOX is listed as 0.477.
In assay [1] (setting [10]), `CC(=O)O[C@@H]1CC[C@@]2(C)C(C[C@@H](OC(C)=O)[C@@]3(C)C4=CC(=O)O[C@@H](c5ccoc5)[C@]4(C)CCC23)C1(C)C` (stereo partly drawn) [3alpha-acetoxydihydrodeoxygedunin] returned an ROS of 2.371. For the same compound, the MTT in assay [2] (setting [10]) was −1.653. The Viability in assay [3] (setting [10]) turned out to be 0.781. For the same compound, the cyt c in assay [4] (setting [10]) is given as 0.179. Further, in assay [5] (setting [10]), the GE-HTS was −0.987. For the same compound, the mitoOX in assay [6] (setting [10]) is listed as −0.584. Also, in assay [7] (setting [10]), the ΔΨm is on record as 1.157. Moreover, in assay [8] (setting [10]), the nucOX is on record as −1.123.
As for `CC(=O)O[C@@H]1CC2C(C)(C)[C@H](O)CC[C@]2(C)C2CC[C@@]3(C)[C@H](c4ccoc4)OC(=O)C4OC43[C@@]21C` (stereo partly drawn) [3alpha-hydroxydeoxodihydrogedunin], the ROS in assay [1] (setting [9]) stood at 1.207. The compound further yielded an MTT in assay [2] (setting [9]) of −1.072. The compound also gave a Viability in assay [3] (setting [9]) of 0.065. Besides, in assay [4] (setting [9]), the cyt c was 1.091. In addition, the GE-HTS in assay [5] (setting [9]) is −0.892. The mitoOX in assay [6] (setting [9]) is reported as −0.857. The same compound had a ΔΨm in assay [7] (setting [9]) of −0.061. This compound also yielded a nucOX in assay [8] (setting [9]) of −0.832.
In assay [1] (setting [10]), `CC(=O)O[C@H]1CC[C@]2(C)[C@H]3CC[C@@]4(C)[C@H](c5ccoc5)OC(=O)[C@H]5O[C@]54[C@]3(C)[C@H](OC(C)=O)C[C@H]2C1(C)C` [3beta-acetoxydeoxodihydrogedunin] came in with an ROS of 0.055. Moreover, the MTT in assay [2] (setting [10]) is −0.528. Also, the Viability in assay [3] (setting [10]) was found to be 0.311. In assay [4] (setting [10]), this compound showed a cyt c of 0.759. In addition, the GE-HTS in assay [5] (setting [10]) is −1.016. The compound further had a mitoOX in assay [6] (setting [10]) of −0.694. For the same compound, the ΔΨm in assay [7] (setting [10]) amounted to 0.254. In addition, the nucOX in assay [8] (setting [10]) is on record as −1.055.
